Source: PMC7582822, “Constituents of Coreopsis lanceolata Flower and Their Dipeptidyl Peptidase IV Inhibitory Effects” (Molecules, 2020)
Read-outs that look alike come from different tables or passages of the source.

Target: T1, human recombinant DPP-IV enzyme (Homo sapiens, UniProt P27487)
T1 construct: purchased Cayman Chemical
Assay: DPP-IV inhibitor screening assay (Cayman kit, fluorogenic H-Gly-Pro-AMC substrate)
Type: biochemical
Conditions: for DPP-IV inhibitory effect (in words): isolates tested up to 100 μM
Procedure: Briefly, a DDP assay buffer consisting of 20 mM Tris-HCL (pH 8.0), […] and 1 mM EDTA was used for the assay solution. Each of the compounds were initially dissolved in DMSO at a concentration of 1 mM. Subsequently, the final concentration of compounds was diluted to 0.1, 1, 10, 25, 50 and 100 μM, respectively. The human recombinant DPP-IV enzyme and the substrate 5 mM H-Gly-Pro conjugated to aminomethylcoumarin (AMC) were put in the same buffer. Diluted assay buffer (30 μL) and diluted enzyme solution (10 μL) were added to a 96-well plate containing 10 μL of solvent (blank) or 10 μL of solvent-dissolved test compounds. The reaction by adding 50 μL of the diluted solution of the fluorogenic substrate was initiated and cleavage of the peptide bond by DPP released the free AMC group. The fluorescence was measured as an excitation wavelength of 350 nm and an emission wavelength of 450 nm using a plate reader (TECAN, Männedorf, Switzerland). The percentage inhibition was expressed as [(DPP-IV level of vehicle-treated control−DPP-IV level of test samples)/DPP-IV level of vehicle-treated control] × 100. Subsequently, the 50% inhibitory concentration (IC50) was determined using GraphPad Prism software (GaraphPad Software, La Jolla, CA, USA) via a dose–response analysis.

[1] = in vitro, compounds at 0.1-100 μM, values in text, read-out: IC50, inhibition of DPP-IV activity

T1 sequence (P27487 whole entry): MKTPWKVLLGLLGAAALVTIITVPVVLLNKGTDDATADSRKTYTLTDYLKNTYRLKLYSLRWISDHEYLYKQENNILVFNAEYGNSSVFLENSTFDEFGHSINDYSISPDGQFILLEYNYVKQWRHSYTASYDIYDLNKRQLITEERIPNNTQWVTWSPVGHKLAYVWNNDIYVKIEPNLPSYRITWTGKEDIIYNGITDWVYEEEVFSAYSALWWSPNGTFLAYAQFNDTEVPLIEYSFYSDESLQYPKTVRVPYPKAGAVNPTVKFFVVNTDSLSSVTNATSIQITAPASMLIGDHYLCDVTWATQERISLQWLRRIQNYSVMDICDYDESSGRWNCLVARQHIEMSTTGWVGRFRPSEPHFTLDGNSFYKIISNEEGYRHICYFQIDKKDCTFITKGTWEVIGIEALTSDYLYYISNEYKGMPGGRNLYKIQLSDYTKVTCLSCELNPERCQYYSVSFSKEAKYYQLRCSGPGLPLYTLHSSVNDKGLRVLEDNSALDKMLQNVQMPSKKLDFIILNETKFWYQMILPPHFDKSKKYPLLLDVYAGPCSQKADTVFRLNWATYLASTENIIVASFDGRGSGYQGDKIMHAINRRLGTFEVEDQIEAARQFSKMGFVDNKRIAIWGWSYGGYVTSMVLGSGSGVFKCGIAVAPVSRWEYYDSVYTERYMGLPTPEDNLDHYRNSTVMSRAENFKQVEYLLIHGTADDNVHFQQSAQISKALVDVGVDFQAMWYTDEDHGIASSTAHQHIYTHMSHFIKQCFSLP

Row | Structure (SMILES) | DPP-IV inhibitory effect (in words) | IC50 (dose-response curves, mean ± SD of three independent experiments, read-out: IC50, effect on DPP-IV activity (Figure 3)) [µM] | IC50 [1] [µM]
1 | CC#CC#CC#C/C=C/[C@@H](CCCCO)O[C@@H]1O[C@H](CO)[C@@H](O)[C@H](O)[C@H]1O [Compound 1, (5R)-6E-tetradecene-8,10,12-triyne-1-ol-5-O-β-glucoside] | did not show their activities | – | –
2 | COc1c(O)ccc(C(=O)/C=C/c2ccc(O)c(O)c2)c1O [Compound 2, lanceoletin] | – | 9.55 | 9.6
3 | COc1ccc(C=CC(=O)c2ccc(OC3OC(CO)C(O)C(O)C3O)c(OC)c2O)cc1O (stereo not shown) [Compound 3, 3,2′-dihydroxy-4-3′-dimethoxychalcone-4′-glucoside] | – | – | 14.3
4 | COc1ccc(/C=C/C(=O)c2ccc(O)c(OC)c2O)cc1O [Compound 4] | – | – | 21.6
5 | COc1c(O)ccc2c1O/C(=C\c1ccc(O)c(O)c1)C2=O [Compound 6, leptosidin] | moderate | – | 13.3
6 | COc1c(O)ccc2c1O[C@@H](c1ccc(O)c(O)c1)CC2=O [Compound 7, (2R)-8-methoxybutin] | moderate | – | 64.9
7 | O=c1cc(-c2ccc(O)c(O)c2)oc2cc(O)cc(O)c12 [Compound 8, luteolin] | did not show their activities | – | –
8 | O=c1c(O)c(-c2ccc(O)c(O)c2)oc2cc(O)cc(O)c12 [Compound 9, quercetin] | did not show their activities | – | –
9 | C/C=C/C#CC#CCCCO[C@@H]1O[C@H](CO)[C@@H](O)[C@H](O)[C@H]1O [Compound 10, bidenoside C] | did not show their activities | – | –
10 | C=C[C@H](O)[C@H](/C=C/C#CC#CC#CC)O[C@@H]1O[C@H](CO)[C@@H](O)[C@H](O)[C@H]1O [Compound 11, (3S,4S)-5E-trideca-1,5-dien-7,9,11-triyne-3,4-diol-4-O-β-glucopyranoside] | did not show their activities | – | –
